Results as given in patent publication US8236844B2, “Histidine derivatives” (Nippon Zoki Pharmaceutical Co., Ltd., priority 2006, dated 2012).

Key:
SART stressed mouse [1] = test: Test for analgesic effect (1): SART stressed mouse, modified Randall-Selitto tail pressure method; type: in vivo, mouse (ddY strain); details: oral administration, peak after 30 minutes
rats [2] = test: Hyperalgesia in osteoarthritis model induced by monoiodoacetic acid into joints of rats; type: in vivo, rat; details: oral administration of 1 mg/kg
SART stressed mouse [3] = test: Test for analgesic effect (1): SART stressed mouse, modified Randall-Selitto tail pressure method; type: in vivo, mouse (ddY strain)
Method: Loading of SART (Specific Alternation of Rhythm in Temperature) stress or repetitive cold stress was conducted in accordance with a method of Kita, et al. (Nippon Yakurigaku Zasshi, Vol. 71, pages 195 to 210, 1975). In a constant-temperature vessel for breeding, a breeding environment temperature for male mice of ddY strain was alternately changed at 4° C. and 24° C. every one hour from 10 a.m. until 5 p.m. and kept at 4° C. from 5 p.m. to 10 a.m. of the next morning. Breeding was conducted for 5 days where water and feed were freely taken by the mice so as to load a repetitive cold stress and, after that, the mice were subjected to the test. Before and after 30 minutes from administration of the test substance, analgesic threshold value was measured by a modified Randall-Selitto method (Tail pressure method; Nippon Yakurigaku Zasshi, Vol. 72, pages 573 to 584, 1976). Thus, Using a Randall-Selitto analgesic effect measuring device where a pressing piece was modified for mouse tail, a pressure stimulation was applied at the rate of 16 g/second to the site which was 1.5 cm to the front end from tail root of the mouse and pressurized weight (g) showing an escaping or squeaking reaction was measured and adopted as a pain threshold value. […] A value (analgesic coefficient) where the pain threshold of the test substance administration group was divided by the pain threshold of the SART control group was calculated and the analgesic effect of the test substance was confirmed. Thus, when the test substance had no effect at all, said value was 1.0 and, as the effect became stronger, the value of the analgesic coefficient increased as 1.1, 1.2 and 1.3. Significant difference between the two groups was determined by a statistic processing of the pain threshold values and the analgesic coefficient was calculated as a mean value of the pain threshold values.
As to the test animals, male mice of ddY strain of four weeks age (one group comprised ten mice) were used. The compound of the present invention as a test substance was administered at a dose of 25 ng or 50 ng per mouse into the lateral ventricle whereupon its analgesic effect was measured.
Further, when the Compound 1 of the present invention was intraperitoneally administered (100 μg/kg), the pain threshold value in the SART control group was […] while, in the test substance administration group, it was 97.8 g (analgesic coefficient: 1.24) whereby a significant improving effect for hyperalgesia was noted.

mice [4] = test: Single dose toxicity test by intraperitoneal administration to mice; type: in vivo, mouse (ddY strain); details: intraperitoneal 250, 500 and 1,000 mg/kg
Method: A single dose toxicity test by intraperitoneal administration of the compounds of the present invention to mice was carried out. Male mice of ddY strain of four weeks age were made into groups of five mice so as to make mean body weight in each group nearly the same. The Compound 1 of the present invention as a test substance was intraperitoneally administered at the doses of 250 mg/kg, 500 mg/kg and 1,000 mg/kg.

Chung model rat = test: Test for analgesic effect (2)/(3): Chung model rat, von Frey allodynia measurement; type: in vivo, rat (Wistar strain); details: for 50% reaction threshold value, Test substance administration group, Before admin.: baseline before intraperitoneal 400 μg/kg; for 50% reaction threshold value, Test substance administration group, After admin. for 30 minutes: intraperitoneal 400 μg/kg single dose, * P<0.05 Dunnett
Method: A test for analgesic effect was conducted using a Chung model rat which is a neuropathic pain model. As to the test animal, male rats of Wistar strain of nine weeks age were used and model rats were prepared in accordance with the method of Kim and Chung (Pain, vol. 50, pages 355 to 363, 1992). Thus, under anesthetization with pentobarbital (40 mg/kg, intraperitoneal administration), rat L5 spinal nerve was exposed and L5 dorsal root ganglion periphery side was strongly ligated using 5-0 silk yarn. The animals were placed in a transparent acrylate cage whose bottom was made of wire net, a 50% reaction threshold value was calculated by an up-down method using a von Frey filament (manufactured by North Coast Medical Inc.) according to the methods of Chaplan, et al. (J. Neurosci. Method, vol. 53, pages 55 to 63, 1994) and by Lee, et al. (J. Neurophysiol., vol. 81, pages 2226 to 2233, 1999) and measurement of allodynia was conducted. Before injury of spinal nerve, the 50% reaction threshold value was measured twice and the animals where the threshold value was outside the standard were excluded from the operation for spinal nerve injury. […] After 30 minutes from the administration of the test substance, allodynia was measured to calculate a 50% reaction threshold value. With regard to a significance test, Paired t-test was conducted for comparison between before and after the nerve injury and Dunnett's multiple comparison test was used for comparison among multiple groups of the nerve injury control group and the test substance administration group. […] After 30 minutes from administration of the test substance, measurement of allodynia was conducted to calculate the 50% reaction threshold value.

mice [5] = test: Test for analgesic effect (4): acetic acid writhing test; type: in vivo, mouse (ddY strain); details: writhing numbers during 10 minutes
Method: The compounds of the present invention were orally administered to mice and a test for an analgesic effect was carried out by means of an acetic acid writhing test. As to the test animals, male mice of ddY strain of four weeks age were subjected to a preliminary breeding and they were used where one group comprised ten mice. Each of the compound of the present invention as a test substance was orally administered (10 mg/kg, 100 mg/kg) in a single dose while, to a control group, distilled water (water for injection) was administered similarly. After 25 minutes from the administration of the test substance, a 0.7% acetic acid/physiological saline was intraperitoneally administered at the dose of 10 mL/kg. From 5 minutes thereafter, writhing numbers during 10 minutes were counted and a suppressive rate for each mouse was calculated according to the following formula. Suppressive Rate(%)=[(Mean writhing numbers of the control group)−(Writhing numbers of each mouse)]÷[Mean writhing numbers of the control group]×100

rats [6] = test: Formalin pain test for rats, second phase; type: in vivo, rat; details: oral administration of 100 mg/kg
[7] = 25 ng per mouse into the lateral ventricle, 30 minutes after administration, pain threshold of test group / SART control group
[8] = 50 ng per mouse into the lateral ventricle, 30 minutes after administration, pain threshold of test group / SART control group
[9] = 30 minutes after administration

SMILES: C=CC(=O)N[C@@H](Cc1cncn1C)C(=O)O [Compound 1, N(α)-acryloyl-N(π)-methyl-L-histidine]
- analgesic action (in words) (SART stressed mouse [1]; 3 and 10 mg/kg): significant analgesic action
- ED50 value determined from the improving rate at peak of action (SART stressed mouse [1]): 2.7 mg/kg
- analgesic effect on hyperalgesia (in words) (rats [2]): significant analgesic effect
- Analgesic coefficient (SART stressed mouse [3]; [7]): 1.33
- Analgesic coefficient (SART stressed mouse [3]; intraperitoneal 100 μg/kg): 1.24
- pain threshold value (SART stressed mouse [3]; intraperitoneal 100 μg/kg, test substance administration group): 97.8 g
- changes in the body weight compared with the control group (mice [4]): no significant difference
- abnormal observation during the observation period (mice [4]; 14 days): no abnormal observation was noted
- death (mice [4]; 14 days): no death case was noted
- autopsied organs and tissues observed by naked eye (mice [4]; after 14 days): no abnormal case was found at all
- 50% reaction threshold value (Chung model rat; intraperitoneal 100 μg/kg single dose, 30 minutes after administration): 9.60 g
- anti-allodynia action (in words) (Chung model rat; oral administration 10 mg/kg, peak after 30 minutes): significant anti-allodynia action
- ED50 value determined from the improving rate at the peak of the action (Chung model rat; oral administration, peak after 30 minutes): 2.4 mg/kg
- Suppressive Rate (mice [5]; oral 10 mg/kg single dose): 33.1%
- Suppressive Rate (mice [5]; oral 100 mg/kg single dose): 53.8%
- analgesic action against pain reaction in the second phase (in words) (rats [6]): significant analgesic action

SMILES: C=CC(=O)N[C@@H](Cc1cncn1CC)C(=O)O [Compound 2, N(α)-acryloyl-N(π)-ethyl-L-histidine]
- Analgesic coefficient (SART stressed mouse [3]; [8]): 1.18
- 50% reaction threshold value, Test substance administration group, Before admin. (Chung model rat): 2.69 ± 0.39 g
- 50% reaction threshold value, Test substance administration group, After admin. for 30 minutes (Chung model rat; [9]): 5.98 ± 0.52* g
- Suppressive Rate (mice [5]; oral 100 mg/kg single dose): 27.6%

SMILES: CC=CC(=O)N[C@@H](Cc1cncn1C)C(=O)O [Compound 3, N(α)-crotonoyl-N(π)-methyl-L-histidine]
- Analgesic coefficient (SART stressed mouse [3]; [7]): 1.23

SMILES: CC=CC(=O)N[C@@H](Cc1cncn1CC)C(=O)O [Compound 4, N(α)-crotonoyl-N(π)-ethyl-L-histidine]
- Suppressive Rate (mice [5]; oral 10 mg/kg single dose): 32.9%

SMILES: CC(C)=CC(=O)N[C@@H](Cc1cncn1C)C(=O)O [Compound 5, N(α)-3-methylcrotonoyl-N(π)-methyl-L-histidine]
- Suppressive Rate (mice [5]; oral 10 mg/kg single dose): 17.8%

SMILES: Cn1cncc1C[C@H](NC(=O)C=Cc1ccccc1)C(=O)O [Compound 6, N(α)-3-phenylpropenoyl-N(π)-methyl-L-histidine]
- Analgesic coefficient (SART stressed mouse [3]; [7]): 1.17
- 50% reaction threshold value, Test substance administration group, Before admin. (Chung model rat): 2.69 ± 0.33 g
- 50% reaction threshold value, Test substance administration group, After admin. for 30 minutes (Chung model rat; [9]): 6.43 ± 1.52* g
- Suppressive Rate (mice [5]; oral 100 mg/kg single dose): 23.5%

SMILES: CC=C(C)C(=O)N[C@@H](Cc1cncn1C)C(=O)O [Compound 7, N(α)-2-methyl-2-butenoyl-N(π)-methyl-L-histidine]
- Analgesic coefficient (SART stressed mouse [3]; [7]): 1.31
- 50% reaction threshold value, Test substance administration group, Before admin. (Chung model rat): 2.71 ± 0.24 g
- 50% reaction threshold value, Test substance administration group, After admin. for 30 minutes (Chung model rat; [9]): 9.88 ± 1.59* g
- Suppressive Rate (mice [5]; oral 100 mg/kg single dose): 36.1%

SMILES: CCn1cncc1C[C@H](NC(=O)C=C(C)C)C(=O)O [Compound 9, N(α)-3-methylcrotonoyl-N(π)-ethyl-L-histidine]
- Suppressive Rate (mice [5]; oral 100 mg/kg single dose): 38.0%

SMILES: CCn1cncc1C[C@H](NC(=O)C=Cc1ccccc1)C(=O)O [Compound 10, N(α)-3-phenylpropenoyl-N(π)-ethyl-L-histidine]
- Analgesic coefficient (SART stressed mouse [3]; [7]): 1.14
- Suppressive Rate (mice [5]; oral 10 mg/kg single dose): 27.7%

SMILES: CC=C(C)C(=O)N[C@@H](Cc1cncn1CC)C(=O)O [Compound 11, N(α)-2-methyl-2-butenoyl-N(π)-ethyl-L-histidine]
- Suppressive Rate (mice [5]; oral 10 mg/kg single dose): 36.1%

SMILES: C=CC(=O)N[C@@H](Cc1cncn1C(C)C)C(=O)O [Compound 13, N(α)-acryloyl-N(π)-isopropyl-L-histidine]
- Analgesic coefficient (SART stressed mouse [3]; [8]): 1.31

SMILES: Cc1ccc(C=CC(=O)N[C@@H](Cc2cncn2C)C(=O)O)cc1 [Compound 16, N(α)-3-(4-methylphenyl)acryloyl-N(π)-methyl-L-histidine]
- Suppressive Rate (mice [5]; oral 100 mg/kg single dose): 30.3%

SMILES: C=CC(=O)N[C@@H](Cc1cncn1Cc1ccccc1)C(=O)O [Compound 27, N(α)-acryloyl-N(π)-benzyl-L-histidine]
- 50% reaction threshold value, Test substance administration group, Before admin. (Chung model rat): 2.58 ± 0.26 g
- 50% reaction threshold value, Test substance administration group, After admin. for 30 minutes (Chung model rat; [9]): 7.32 ± 1.32* g
- Suppressive Rate (mice [5]; oral 10 mg/kg single dose): 37.9%

SMILES: C=C(C)C(=O)N[C@@H](Cc1cncn1C)C(=O)O [Compound 30, N(α)-methacryl-N(π)-methyl-L-histidine]
- 50% reaction threshold value, Test substance administration group, Before admin. (Chung model rat): 2.63 ± 0.23 g
- 50% reaction threshold value, Test substance administration group, After admin. for 30 minutes (Chung model rat; [9]): 4.30 ± 0.46* g

SMILES: NCCC(=O)N[C@@H](Cc1cnc[nH]1)C(=O)O [carnosine, β-ananyl-L-histidine, reference compound]
- analgesic action (in words) (SART stressed mouse [3]; administration into the lateral ventricle): no significant analgesic action
